Square brackets hold non-standard residues; d marks the D form. Peptide text beside a SMILES is read from it. Leu(5,5,5,5',5',5'-F6) = N[C@@H](CC(C(F)(F)F)C(F)(F)F)C(=O)O
Assays:
[1] = tested on: human red blood cells (hRBC); type: cell-based
Description: The selectivity with which the peptides are able to lyse bacterial cells compared to mammalian cells was interrogated by a hemolysis assay against human red blood cells (hRBC). […] Our results are consistent with this trend.
Fresh human red blood cells (hRBCs) were centrifuged at 3,500 rpm and washed with PBS buffer until the supernatant was clear. The hRBCs were then resuspended and diluted to a final concentration of 1% (v/v) in PBS and stored at 4° C. […] An aliquot (50 μL) of supernatant was transferred to a new 96-well plate containing 50 μL H2O in each well. The absorbance at 415 nm was measured using a plate reader. Wells containing melittin at 100-400 μg/mL served as positive controls, and wells containing only buffer and hRBCs served as negative controls. The percentage hemolysis was calculated using the equation:
where complete hemolysis is defined as the average absorbance of all wells containing 100-400 μg/[…] melittin.

trypsin = tested on: T1, trypsin; experiment: in vitro; type: in vitro ADME, bovine; conditions: bovine, isolated enzyme trypsin, pH 7.4
T1 construct: trypsin (from bovine pancreas, EC 3.4.21.4); from tissue; host or cells: bovine pancreas
Description: The proteolytic stability of peptides towards trypsin (from bovine pancreas, EC 3.4.21.4) was determined by an analytical RP-HPLC assay. […] The enzyme concentration (in 1 mM HCl) was determined by absorbance at 280 nm. […] The amount of enzyme was optimized so that kinetics of proteolytic reactions could be assayed by RP-HPLC (detection at 230 nm). The peptides were incubated with trypsin at 37° C. over a period of 3 h. Aliquots (10 μL) were taken at different reaction times, diluted with 0.2% TFA (440 μL) and stored at −80° C. […] The remaining full-length peptide concentration was normalized with respect to the initial concentration.
where A is the normalized concentration of peptides; k is the pseudo first order rate constant; t is the reaction time in mins; and [A]0 is the initial concentration of peptides. Each fragment cleaved from the full-length peptides was identified by ESI-MS so that cleavage patterns could be established and compared.

remaining at 3 h, 0.25 mM (trypsin): > 78%
Compound: CC[C@H](C)[C@H](NC(=O)CN)C(=O)NCC(=O)N[C@@H](CCCCN)C(=O)N[C@@H](Cc1ccccc1)C(=O)N[C@@H](CC(C(F)(F)F)C(F)(F)F)C(=O)N[C@@H](Cc1c[nH]cn1)C(=O)N[C@@H](C)C(=O)N[C@@H](CC(C(F)(F)F)C(F)(F)F)C(=O)N[C@@H](CCCCN)C(=O)N[C@@H](CCCCN)C(=O)N[C@@H](Cc1ccccc1)C(=O)N[C@@H](CC(C(F)(F)F)C(F)(F)F)C(=O)N[C@@H](CCCCN)C(=O)N[C@@H](C)C(=O)N[C@@H](Cc1ccccc1)C(=O)N[C@@H](CC(C(F)(F)F)C(F)(F)F)C(=O)N[C@@H](C)C(=O)N[C@@H](CCC(=O)O)C(=O)N[C@@H](CC(C(F)(F)F)C(F)(F)F)C(=O)N[C@@H](CCSC)C(=O)N[C@@H](CC(N)=O)C(=O)N[C@@H](CO)C(N)=O [Peptide M2F5] (H-GIGKF[Leu(5,5,5,5',5',5'-F6)]HA[Leu(5,5,5,5',5',5'-F6)]KKF[Leu(5,5,5,5',5',5'-F6)]KAF[Leu(5,5,5,5',5',5'-F6)]AE[Leu(5,5,5,5',5',5'-F6)]MNS-NH2)
hemolytic activity relative to parent peptide, in words [1]: significantly more hemolytic

From patent US20090326196A1 (priority 2006, published 2009)
